Assay [1] relates to 3T3-L1 adipocytes. In words: Mitochondrial membrane potential (JC-1). It counts as cell-based, mouse. As to conditions: H2O2 100 nmol/L, 48 hours. As to the method:
3T3-L1 preadipocytes were incubated at a density of 8000 cells/cm^2 (10 cm^2 dish) and grown in Dulbecco's modified Eagle's medium (DMEM) containing 10% FBS and antibiotics (adipocyte medium) at 37° C. in 5% CO2 in air. Confluent preadipocytes were induced to differentiate with a standard differentiation medium consisting of DMEM-F10 (1:1, vol/vol) medium supplemented with 1% FBS, 1 μM dexamethasone, IBMX (0.5 mM) and antibiotics (1% Penicillin-Streptomycin). Preadipocytes were maintained in this differentiation medium for 3 days and subsequently cultured in adipocyte medium. Cultures were re-fed every 2-3 days to allow 90% of cells to reach full differentiation before conducting chemical treatment. Chemicals were freshly diluted in adipocyte medium before treatment. […] Cell viability was measured via trypan blue exclusion.
Mitochondrial membrane potential was analyzed fluorometrically with a lipophilic cationic dye JC-1 (5,5′,6,6′-tetrachloro-1,1′,3,3′-tetraethylbenzimidazol carbocyanine iodide) using a mitochondrial potential detection kit (Biocarta, San Diego, Calif.). Mitochondrial potential was determined as the ratio of red fluorescence (excitation 550 nm, emission 600 nm) and green fluorescence (excitation 485 nm, emission 535 nm) using a fluorescence microplate reader.

In assay [2] the test system is 3T3-L1 adipocytes. In words: Intracellular Ca2+ in cultured adipocytes (fura-2). It counts as cell-based, mouse. As to conditions: H2O2 100 nmol/L, 4 hours; p<0.001. As for the experimental part: 3T3-L1 preadipocytes were incubated at a density of 8000 cells/cm^2 (10 cm^2 dish) and grown in Dulbecco's modified Eagle's medium (DMEM) containing 10% FBS and antibiotics (adipocyte medium) at 37° C. in 5% CO2 in air. Confluent preadipocytes were induced to differentiate with a standard differentiation medium consisting of DMEM-F10 (1:1, vol/vol) medium supplemented with 1% FBS, 1 μM dexamethasone, IBMX (0.5 mM) and antibiotics (1% Penicillin-Streptomycin). Preadipocytes were maintained in this differentiation medium for 3 days and subsequently cultured in adipocyte medium. Cultures were re-fed every 2-3 days to allow 90% of cells to reach full differentiation before conducting chemical treatment. Chemicals were freshly diluted in adipocyte medium before treatment. Cells were washed with fresh adipocyte medium, re-fed with medium containing the different treatments, and incubated at 37° C. in 5% CO2 in air before analysis. Cell viability was measured via trypan blue exclusion. [Ca^2+]i in adipocytes was measured using a fura-2 dual-wavelength fluorescence imaging system. Cells were plated in 35-mm dishes […]). […] Cells were loaded with fura-2 acetoxymethyl ester (fura-2 AM) (10 μmol/L) in the same buffer for 2 h at 37° C. in a dark incubator with 5% CO2. To remove extracellular dye, cells were rinsed with HBSS three times and then post-incubated at room temperature for an additional 1 h for complete hydrolysis of cytoplasmic fura-2 AM. The dishes with dye-loaded cells were mounted on the stage of Nikon TMS-F fluorescence inverted microscope with a Cohu model 4915 charge-coupled device (CCD) camera. Fluorescent images were captured alternatively at excitation wavelengths of 340 and 380 nm with an emission wavelength of 520 nm. After establishment of a stable baseline, the responses to 1α, 25-(OH)2-D3 was determined. [Ca^2+]i was calculated using a ratio equation as described previously. Each analysis evaluated responses of 5 representative whole cells. Images were analyzed with […]2 version 4.62 imaging software (Intracellular Imaging, Cincinnati, Ohio). […]

The next assay has as its system TNFα. The assay can be described thus: TNFα expression in RAW 264 macrophages. It counts as cell-based. As for the experimental part: (§1) RAW 264 macrophages and 3T3-L1 preadipocytes (American Type Culture Collection) were incubated at a density of 8000 cells/cm2 (10 cm2 dish) and grown in Dulbecco's modified Eagle's medium (DMEM) containing 10% FBS and antibiotics (adipocyte medium) at 37° C. in 5% CO2 in air. Confluent 3T3-L1 preadipocytes were induced to differentiate with a standard differentiation medium consisting of DMEM-F10 (1:1, vol/vol) medium supplemented with 1% FBS, 1 μM dexamethasone, IBMX (0.5 mM) and antibiotics (1% Penicillin-Streptomycin). Preadipocytes were maintained in this differentiation medium for 3 days and subsequently cultured in adipocyte medium. Cultures were re-fed every 2-3 days to allow 90% cells to reach fully differentiation for 3T3-L1 adipocytes or grow to a confluence for RAW 264 before conducting chemical treatment.
Cells were washed with fresh adipocyte medium, re-fed with medium containing the indicated treatments, and incubated at 37° C. in 5% CO2 for 48 hours before analysis. Cell viability was measured via trypan blue exclusion.
(§2) Human adipocytes (Zen-Bio, Inc.), 3T3-L1 adipocytes, RAW264 macrophages were obtained and co-cultured by using transwell inserts with 0.4 μm porous membranes (Corning) to separate adipocytes and macrophages. All data are expressed as mean±SEM. Data were evaluated for statistical significance by analysis of one-way or two-way variance (ANOVA; means with different letter differ, p<0.05).
Adipocyte and muscle 18s, CD14, TNFα, MIP, M-CSF, IL-6 and MCP-1 were quantitatively measured using a Smart Cycler Real Time PCR System (Cepheid, Sunnyvale, Calif.) with a TaqMan 1000 Core Reagent Kit (Applied Biosystems, Branchburg, N.J.). […] Reactions of quantitative RT-PCR for standards and unknown samples were also performed according to the instructions of Smart Cycler System (Cepheid, Sunnyvale, Calif.) and TaqMan Real Time PCR Core Kit (Applied Biosystems, Branchburg, N.J.). The mRNA quantitation for each sample was further normalized using the corresponding 18s quantitation.

Assay [3] deals with 3T3-L1 adipocytes. In words: Cytokine antibody array of culture medium. It counts as cell-based, mouse. As to the method: as §1, §2
A TansSignal™ mouse cytokine antibody array kit (Panomics, Fremont, Calif.) was used to detect cytokine protein released in culture medium according to the manufacture's instruction. […]

`OO` [H2O2, hydrogen peroxide]: the “increase in mitochondrial potential” value in the assay on 3T3-L1 adipocytes [1] is recorded as 72%. Moreover, in the assay with 3T3-L1 adipocytes [2], the “increase in [Ca2+]i” value is 5 fold.
Turning to `C=C1/C(=C\C=C2/CCC[C@]3(C)[C@@H]([C@H](C)CCCC(C)(C)O)CC[C@@H]23)C[C@@H](O)C[C@@H]1O` [calcitriol, 1,25-(OH)2-D3], in the assay with TNFα (RAW 264 macrophages cultured alone), the “stimulation of TNFα expression” value was found to be 91%. The “effect on TNFα expression in macrophages” value in the assay on TNFα (co-culture with differentiated 3T3-L1 adipocytes) is reported as “further enhanced”. In the assay with 3T3-L1 adipocytes [3] (co-culture of 3T3-L1 adipocytes with macrophages), the inflammatory cytokine production entry was “further stimulated”. The “production of multiple inflammatory cytokine proteins” value in the assay with 3T3-L1 adipocytes [3] (differentiated 3T3-L1 adipocytes cultured alone) is given as “up-regulated”.

Source of the values: patent US20110038948A1, “Methods of Reducing the Production of Reactive Oxygen Species and Methods of Screening or Identifying Compounds and Compositions that Reduce the Production of Reactive Oxygen Species” (UNIVERSITY OF TENNESSEE RESEARCH FOUNDATION, priority 2005, published 2011).
